A short description of this data set: Single-dose intravenous and oral pharmacokinetic study in mice. Format: in vivo, Balb/c mice. The note with it: mouse; male Balb/c mice, PO 50 mg/kg, plasma. The procedure:
Twenty-seven male Balb/c mice were randomly divided into 3 groups, 9 mice in each group. Group 1: mice received an intravenous (IV) dose of Compound 1 at 5 mg/kg with a dosing volume of 5 mL/kg. Blood samples were collected at 0.083, 0.25, 0.5, 1, 2, 4, 6, 8, and 24 hours post-dose using a staggered sampling method. Group 2: mice received an oral (gavage) dose of Compound 1 at 50 mg/kg with a dosing volume of 10 mL/kg. Blood samples were collected at 0.25, 0.5, 1, 2, 4, 6, 8, and 24 hours post-dose using a staggered sampling method. Group 3: mice received an oral (gavage) dose of palbociclib at 50 mg/kg with a dosing volume of 10 mL/kg. Blood samples were collected at 1, 3, 4, 6, 8, 10, 12, and 24 hours post-dose using a staggered sampling method. For each group, 3 samples were collected at each time point. Plasma was separated by centrifugation and stored at −70° C. The concentrations of Compound 1 or palbociclib in plasma were measured using LC-MS/MS.

Turning to `CC(=O)c1c(C)c2cnc(Nc3ccc(N4CCNCC4)cn3)nc2n(C2CCCC2)c1=O` [palbociclib, reference compound], the AUC(0-t) was found to be 18300 ng·h/mL, the Cmax is 1320 ng/mL, the Tmax came out at 8 h and the half-life was 7.64 h.

Values taken from US20260207604A1, “COMPOUND AND USE THEREOF” (ONQUALITY PHARMACEUTICALS CHINA LTD., priority 2022, published 2026).
